# Results from a melting point compilation (Tetko et al.; mined from patent text by program, amines drawn as free bases though some values may be those of a salt).
row,melting point,SMILES
1,132 to 137 °C,CC1(C)SC(CCCc2ccc(C(=O)O)cc2)N(CCC2(O)CCCCC2)C1=O (stereo unspecified)
2,56 °C,Brc1ccc(SCc2ncon2)cc1
3,116 to 117 °C,O=C(NCCC(F)=C(F)F)N(c1ccccc1)c1ccccc1
4,159 °C,OCCN1CCC(Nc2nc3cncnc3n2Cc2ccc(F)cc2)CC1
5,194 to 195 °C,COc1cc(CCC2OC(=O)NC2=O)ccc1OCc1nc(-c2ccccc2)oc1C (stereo unspecified)
6,164 to 166 °C,CC(C)CN(CC(O)C(Cc1ccccc1)NC(=O)C(CC(N)=O)NC(=O)NCc1ccccc1)C(=O)NC(C)(C)C (stereo unspecified)
7,113 to 115 °C,CC(C)n1nc(C(=O)NCC2CCN(CC(=O)Nc3ccc(OCc4ccccc4)cc3)CC2)c2ccccc21
8,189 to 191 °C,CC1(C)c2cccnc2C(=O)c2ccc(Cl)cc2S1(=O)=O
9,156 to 157 °C,O=C(NCCSc1cccc2nccn12)c1ccccc1O
10,192 °C,Nc1c(-c2ccccc2)oc2c(CO)cccc2c1=O
11,> 230 °C,CSC1C(=O)Nc2c(Oc3c(Cl)cccc3Cl)cccc21 (stereo unspecified)
12,258 to 260 °C,Cc1nc(CCn2cnc3c2c(=O)[nH]c(=O)n3C)no1
13,101 to 103 °C,COCCOc1ccc(CCCN2C(=O)c3ccccc3C2=O)c(Oc2ncc(C(F)(F)F)cc2Cl)c1
14,181 to 182 °C,O=C(Nc1ccc2c(c1)CS(=O)(=O)N2)C(=O)N1CCC(Cc2ccccc2)CC1
15,212 to 214 °C,Cc1cc(=O)[nH]c2cc(OCCCN3CCN(c4cccc(Cl)c4)CC3)ccc12
16,82 °C,C=Cc1ccc(NS(C)(=O)=O)c(F)c1
17,171 to 173 °C,Cc1cnc2sc(S(=O)(=O)Cc3ccccc3)nn2c1=O
18,258 to 260 °C,CC(=O)Nc1nc(-c2ccc(S(=O)(=O)CCO)cc2)cs1
19,172 to 173 °C,O=C1c2ccccc2C(O)N1CCN1CCC(c2noc3cc(F)ccc23)CC1 (stereo unspecified)
20,110 °C,CC1SC(c2cccnc2)NC1=O (stereo unspecified)
21,50 to 52 °C,CCCCCCOc1c(C=O)ccc2c1C=CC(C=O)(OCCCCCC)C2 (stereo unspecified)
22,98 to 101 °C,CCOC(=O)c1ncn(-c2nc(C)cs2)c1Cl
23,134 °C,O=C(O)c1ccc(Cl)c(S(=O)(=O)NC2CCCCCCC2)c1

row,melting point,SMILES
1,246 to 248 °C,CCN1CCN(c2ccc(-c3ccc4c(Nc5ccc(Sc6nccn6C)c(Cl)c5)c(C#N)cnc4c3)nc2)CC1
2,172 to 174 °C,CCc1nnc2c(Nc3ccccc3)nc3ccccc3n12
3,128 to 133 °C,CC(=O)c1cccc(-c2ncccc2OC2SCC(O)C(O)C2O)c1 (stereo unspecified)
4,145 to 146 °C,COCCOCCOc1cc(OC)c(-c2cccs2)cc1/C=C/C(=O)c1ccc(C(=O)O)cc1
5,254 °C,CCCC1=C(C#N)C(c2ccccc2Cl)c2c(n[nH]c2-c2cccc3ccccc23)N1 (stereo unspecified)
6,242 to 248 °C,Cc1onc(-c2ccccc2)c1-c1ccc(S(=O)(=O)NCC(=O)O)cc1
7,244 to 245 °C,O=C(O)C1c2ccccc2C=Cc2ccccc21
8,223 to 225 °C,CC(=O)Nc1ncc2cc(-c3c(Cl)cccc3Cl)c(NC(C)=O)nc2n1
9,151 to 156 °C,COc1ccc(C#N)c2c1OC1(COCC1OC)C2 (stereo unspecified)
10,145 °C,CCCCOc1ccc(C(=O)Nc2ccc3cc(CN4CCN(C)CC4)cnc3c2C)cc1
11,84 to 85 °C,CCOCCCn1ccc(=O)c(OC(=O)NCC(=O)OCC)c1C
12,> 260 °C,O=C(O)c1ccc(-c2ccc(NS(=O)(=O)c3cccnc3)cc2)[nH]c1=O
13,219 to 222 °C,Cn1cc(CO)c(=O)c2ccc(F)cc21
14,115 °C,CC(NC(=O)Cc1cc(F)cc(F)c1)C(=O)NC1C(=O)N(C)C(c2ccccc2)c2ccccc21 (stereo unspecified)
15,178 to 180 °C,COC(=O)c1ccc2c(c1)S(=O)(=O)NCN2C1CC1
16,116 to 119 °C,N=C(Nc1ccccc1)N1CCC1
17,102 to 103 °C,COc1ccc(Cc2cnc(-c3ccccc3)c(-c3ccccc3)n2)cc1
18,193 to 195 °C,CCCc1c(OCCCCCC(=O)c2cc(O)c(O)cc2F)ccc(C(=O)O)c1O
19,206 °C,N#Cc1cnn2c(C(F)(F)F)cc(-c3ccc(Cl)c(Cl)c3)nc12
20,201 to 203 °C,CCOC(=O)c1cn(C(c2ccccc2)(c2ccccc2)c2ccccc2)nn1
21,119 to 121 °C,N#Cc1c(N2CCCCC2)cccc1[N+](=O)[O-]
22,213 to 215 °C,Cc1cc(Nc2cncc(Nc3ccc(Cl)c(C(=O)N(C)C)c3)n2)n[nH]1
23,128 to 130 °C,N#CCc1cc(O)cc2cc(-c3ccc(O)cc3)oc12

row,melting point,SMILES
1,> 260 °C,O=C1c2ccc(S(=O)(=O)c3ccccc3)cc2C(=O)c2cc3ccccc3cc21
2,131 to 135 °C,COc1ccc(NC(N)=S)nc1
3,60 to 63 °C,COC(=O)c1ccc(COc2cccc(-c3c(C(=O)c4ccccc4)cnc4c(C(F)(F)F)cccc34)c2)c(OC)c1
4,217 to 219 °C,O=c1cc2c(nn1-c1ccc(Cl)cc1)-c1cccc(Cl)c1S(=O)CC2 (stereo unspecified)
5,104 to 105 °C,O=C1CCCCC1c1ncc[nH]1 (stereo unspecified)
6,152 to 153 °C,CS(=O)c1ccc(-n2cnc3ccc(-c4nnc(SCc5cccc(C#N)c5)o4)cc32)cc1 (stereo unspecified)
7,59 to 61.5 °C,COC(=O)c1cc(Br)ccc1O
8,117 to 119 °C,O=C(Nc1ccc(Oc2ccnc(NCC3CC3)n2)c2ccccc12)c1cc(F)cc(N2CCCCC2)c1
9,> 75 °C,COc1c([N+](=O)[O-])cc(C(C)(C)C)cc1[N+](=O)[O-]
10,> 240 °C,Cc1cc([N+](=O)[O-])c2[nH]cc(CO)c(=O)c2c1
11,128 to 130 °C,Nc1nc2ncnc(NCc3ccco3)c2[nH]1
12,188 to 190 °C,CC(=O)N[C@@H](CSC(=O)c1ccccc1)C(=O)NCCSC(=O)c1ccccc1
13,155 °C,CC(=O)OCC1OC(n2ccnc2[N+](=O)[O-])CC1OC(C)=O (stereo unspecified)
14,211 to 213 °C,CC(C)(C)C(=O)c1c[nH]c2ncc(-c3ccc(N4CCN(CCO)CC4)cc3)nc12
15,182 °C,CC(C)(C)c1ccc(/C=C/C(=O)Nc2ccc3c(ccn3CCO)c2)cc1
16,114 °C,C=CON=C(C(=O)OCC)c1csc(NC(c2ccccc2)(c2ccccc2)c2ccccc2)n1
17,114 to 115 °C,CCCCOc1c(N(C)C(=O)OC(C)(C)C)n(CC(C)(C)C)c(=O)c2ccc(CC(N)=O)cc12
18,150 to 152 °C,Cn1c(=O)cnn(-c2cc(N)c(Cl)cc2F)c1=O
19,86 to 87 °C,CN(C)C(=O)c1cnn2ccccc12
20,250 to 255 °C,CC1Sc2c(C(=O)O)c(=O)c3cc(Cl)c(N4CCN(C)CC4)cc3n21 (stereo unspecified)
21,194 to 196 °C,COC(=O)c1cccc2[nH]c3cc4c(c(OC)c3c12)CCCC4
22,135 to 137 °C,CON1C(C)(C)CC(OC(=O)CCc2cc(-n3nc4ccccc4n3)c(O)c(C(C)(C)C)c2)CC1(C)C
23,62 °C,CCOC(=O)c1cnc2onc(C)c2c1OCC

row,SMILES,melting point
1,COc1ccc(-c2cc(=O)c3c(OC)cc(OC)c(C4=CCN(C)CC4)c3o2)cc1,179 to 181 °C
2,COC(=O)[C@@H]1C[C@H](NC(C)=O)C(=O)[C@H]2[C@@]1(C)CC[C@H]1C(=O)O[C@H](c3ccoc3)C[C@]21C,222 to 224 °C
